# Measured values taken from patent publication US7824847B2, “Tissue preservation method with polyoxyethylene/polyoxypropylene copolymer” (Regents of the University of California, priority 2003, dated 2010).
# System: bovine corneal endothelial cells
# Assay: Evaluation of the endothelial cell layer in bovine corneas stored in preservation media at 4° C. (Calcein AM viability staining)
# Type: cell-based
# Settings: DMSO at 0.5%
# Experimental: Evaluations of the endothelial cell layer in bovine corneas in different media. post-incubation survival utility or usefulness for transplantation is defined as less than 3% dying and less than 1.5% missing. Missing cells leave a gap in the layer; calcein-AM staining for esterase activity is used to determine cell health. Transplant surgeons typically use missing cell counts and morphology alone as the index of health and post-incubation survival utility.
# Bovine eyes were obtained from Rancho Veal, Petaluma, Calif. Two to 3 hours elapsed between death of the cattle and excision of the cornea with a 1 to 2 millimeter (mm) scleral rim from the enucleated eyes. […]
# The viability of the corneal endothelium was quantified with the vital stain Calcein AM (Molecular Probes, Eugene, Oreg.). The hydrophobic and non-fluorescent Calcein AM readily diffuses across the plasma membrane and into the cytoplasm. […] The bright nuclei are easily counted. […] A Zeiss IM-35 inverted fluorescence microscope (Thornwood, N.Y.) equipped with excitation and emission filters for Green Fluorescent Protein (filter set XF100-2 from Omega Optical, Brattleboro, Vt.) was used to illuminate the half cornea. […]
# For analysis, each photograph was overlaid with a sheet of transparency film. A felt-tip lab pen was used to mark cells as they were counted and scored as bright (live), dim (dying), or dark (dead or missing). […]
structure (smiles),measurement,value
"C[S+](C)[O-] [DMSO, dimethylsulfoxide]",effect on corneal endothelial cell survival,no effect
